B1: IL1β: pro-inflammatory cytokine; recombinant murine IL1β in vivo (protein, UniProt P10749 118-269, looked up)
Interleukin-1 beta: VPIRQLHYRLRDEQQKSLVLSDPYELKALHLNGQNINQQVIFSMSFVQGEPSNDKIPVALGLKGKNLYLSCVMKDGTPTLQLESVDPKQYPKKKMEKRFVFNKIEVKSKVEFESAEFPNWYISTSQAEHKPVFLGNNSGQDIIDFTMESVSS
B2: interleukin-6 (protein, UniProt P08505 25-211, looked up)
Interleukin-6: FPTSQVRRGDFTEDTTPNRPVYTTSQVGGLITHVLWEIVEMRKELCNGNSDCMNNDDALAENNLKLPEIQRNDGCYQTGYNQEICLLKISSGLLEYHSYLEYMKNNLKDNKKDKARVLQRDTETLIHIFNQEVKDLHKIVLPTPISNALLTDKLESQKEWLRTKTIQFILKSLEEFLKVTLRSTRQT
notes: pro-inflammatory cytokine; recombinant murine IL6 in vivo

How the values were obtained:
[1] = test system: CREBH mRNA; assay: CREBH mRNA induction in H2.35 cells (Northern blot, quantitative real-time RT-PCR); assay type: cell-based; conditions: murine H2.35 hepatoma cells; IL6 40 ng/ml, TNFα 20 ng/ml, IL1β 40 ng/ml, DTT 5 mM, Tg 0.5 μM, Tm 5 μg/ml, BFA 0.5 μg/ml; 4, 8, 12 hours
Procedure: FIG. 1 depicts the induction of expression of CREBH during fetal liver development and by proinflammatory cytokines. (A) Structural comparison of CREBH and ATF6. The domains are indicated by residue numbers of amino acids. (B) Northern blot analysis of CREBH mRNA levels in various tissues from mice. Tissue samples were collected from 3-month-old wild-type C57BL/6J mice. Levels of β-actin mRNA were determined for control of sample loading. (C) Expression profile of CREBH mRNA in fetal livers during embryogenesis. (D) Induction of CREBH mRNA in murine hepatoma cell line H2.35 under IL6 (40 ng/ml) stimulation for various time points. For panels A-D, experiments were performed at least 3 times and representative data are shown.
FIG. 2 depicts the analysis of gene expression in H2.35 cells. H2.35 cells were treated with 20 ng/ml TNFα, 40 ng/ml IL1β, 20 μg.ml LPS, 5 mM DTT, 0.5 μM Tg, 5 μg/ml Tm or 0.5 μg/ml BFA for 4, 8 and 12 hours, respectively. Levels of CREBH mRNA (A) and spliced XBP1 mRNA (B) in H2.35 were determined by quantitative real-time RT-PCR. Fold changes of mRNA induction were determined after normalization of the mRNA levels to internal control 18S ribosomal RNA levels. […] However, expression from the SAP or CRP promoter-reporter plasmids is sufficiently measurable in H2.35 cells so that it is possible to investigate transcriptional activation effects of CREBH on the CRP and SAP promoters by reporter assays in H2.35 cells. These reporter experiments are not possible in non-hepatocyte cell lines. However, for non-hepatocyte cell lines, such as wild-type and mutant CHO cells, CREBH cleavage and activation could be measured using the UPRE reporter assay. (C) Summary of stimuli that induce CREBH mRNA, NF-κB activation and the UPR in H2.35 and HepG2 cells. (D) Expression of BiP and GRP94 in H2.35 cells over-expressing CREBH or ATF6. H2.35 cells in a 35 mm collagen-coated plate were transfected with 1.5 μg empty DNA vector, vector expressing the nuclear form of CREBH (CREBH-N) or vector expressing nuclear form of ATF6 (ATF6 p50), respectively. Expression levels of BiP and GRP 94 were determined by Western blot analysis by using a murine and —BiP monoclonal antibody and a murine anti-GRP94 monoclonal antibody, respectively. The membranes were re-blotted with an anti-α-actin antibody for control of sample loading.
Northern blot analysis was performed according to standard procedures (Sambrook et al., 1989). ^32P-labeled probes were prepared using a random prime labeling system (Amersham Pharmacia, Piscataway, N.J., USA). A 210 bp mouse CREBH cDNA fragment, a 250 bp mouse CRP cDNA fragment and a 260 bp mouse SAP cDNA fragment were amplified from murine total RNA by reverse transcription-PCR system (Roche Applied Science), respectively, and were used as probes for Northern blot analyses. Total RNA (15 μg) per sample purified from cultured cells or murine tissues was used for Northern blot analysis. Quantitative real-time RT-PCR was performed as previously described (Back et al., 2005). Briefly, total cellular RNA prepared was reverse-transcribed to cDNA using a random primer (Applied Biosystems). The reaction mixture, containing SYBR Green PCR Master Mix (Applied Biosystems), was run in a 7900HT Fast Real-Time PCR System (Applied Biosystems). Real-time PCR primer sequences for quantification of murine XBP1 mRNA splicing are: the forward primer 5′-[…]-3′, and the reverse primer 5′-[…]-3′. Other primer sequences were designed by Primer Express (Applied Biosystems).

[2] = test system: human CREBH; assay: Cleavage of flag-tagged human CREBH stably expressed in H2.35 cells (Western blot, cell fractionation); assay type: cell-based; conditions: H2.35 cells stably expressing flag-tagged human CREBH; 8 hours; BFA 0.5 μg/ml, TNFα 20 ng/ml, IL6 40 ng/ml, DTT 5 mM, Tg 0.5 μM, Tm 5 μg/ml
Procedure: FIG. 3 depicts the effects of ER stress on CREBH: proteolytic cleavage of CREBH to release its N-terminal fragment that translocates into the nucleus. (A) Illustration of transmembrane domains and lumenal domains of SREBP, ATF6, Luman and CREBH in human (hs), mouse (mm). The conserved residues for S1P and S2P recognition are highlighted. (B) Cleavage of CREBH in H2.35 cells under different stimuli. H2.35 cells stably expressing flag-tagged human CREBH were treated with 0.5 μg/ml BFA, 20 ng/ml TNFα, 40 ng/ml IL6, 5 mM DTT, 0.5 μM Tg or 5 μg/ml Tm for 8 hours. Untransfected H2.35 cells (lane 1) and the H2.35 cells that stably express human CREBH (lane 2) were cultured under normal conditions as control. Total cell lysates were collected for Western blot analysis by using an anti-flag monoclonal antibody (upper panel). Levels of α-actin were determined for control of protein loading (lower panel). (C) Cleavage of CREBH in H2.35 cells under Tm treatment for various time periods. The H2.35 cells stably expressing flag-tagged CREBH were cultured in the absence or presence of Tm (5 μg/ml) for 4, 8 or 12 hours. Membrane fractions were isolated from the total cell lysates, and were subjected to Western blot analysis of CREBH and calnexin, respectively. Nuclear fractions were isolated from the same total cell lysates and subjected to Western blot analysis of CREBH and PARP, respectively. (D) Translocation of CREBH in COS7 cells. COS7 cells were co-transfected with a construct expressing flag-tagged full-length CREBH (CREBH-F) or CREBH-ΔC and a construct expressing KDEL-RFP, and were then cultured in the absence or presence of Tm (5 μg/ml) for 4 hours. Cells were then stained with FITC-conjugated anti-flag antibody and subjected to Zeiss Confocal Microscope analysis. Magnification: 40×10.
For analysis of expression and cleavage of CREBH protein, total cell lysates were prepared from H2.35 cells or COS7 cells using Nonidet P-40 lysis buffer (1% NP-40, 50 mM Tris-HCl at pH 7.5, 150 mM NaCl, 0.05% SDS) supplemented with protease inhibitors (Complete Mini from Roche Applied Science), 0.1 mM sodium vanadate, and 1 mM sodium fluoride. Membrane and nuclear fractions of cell lysates were isolated as previously described (Dignam et al., 1983). The total cell lysate, membrane and nuclear fractions were subjected to SDS-PAGE and then analyzed by Western blot using anti-flag monoclonal antibody or other antibodies. Immunoprecipitation and Western blot analyses of ATF6 and CREBH interaction in 293T cells expressing flag-tagged CREBH protein were performed by using anti-human ATF6 and anti-flag antibodies. Total cell lysates from 293T cells transfected with control vector or pFlag-CREBH-ΔC were immunoprecipitated with anti-human ATF6 polyclonal antibody and anti-flag antibody, respectively. The immunoprecipitated cell lysates were then subjected to Western blotting by using anti-flag antibody to detect CREBH protein and using anti-human ATF6 antibody to detect ATF6 protein, respectively. The same total cell lysates were subjected to Western blotting by using anti-flag antibody to detect expression of CREBH protein in the transfected cells. For detecting endogenous CREBH protein in the liver extracts, an anti-mouse CREBH polyclonal antibody was raised in rabbits against a purified mouse CREBH peptide composed of amino acids 92-109 [[…]]. The rabbit anti-human ATF6 polyclonal antibody was generated in the inventor's laboratory. The anti-mouse calnexin monoclonal antibody and the anti-mouse monoclonal PRAP antibody were purchased from Stressgen Biotechnologies (Victoria, BC, Canada) and BD Bioscience (Mountain View, Calif., USA), respectively.

[3] = test system: BiP, CHOP, EDEM, spliced XBP1, SAP and CRP mRNAs; assay: UPR and APR mRNA induction in mouse liver after injection (quantitative real-time RT-PCR); assay type: in vivo; conditions: 24 hours after injection; for fold increases in UPR mRNA levels relative to those observed after injection of Tm: liver; for levels of spliced XBP1 mRNA and mRNA encoding EDEM in the liver: wild-type mice
Procedure: Levels of spliced XBP1 mRNA were determined by quantitative real-time RT-PCR (lower panel). […] (B) Induction of CRP, SAP, BiP and spliced XBP1 mRNAs in mice injected with Tm. C57BU6J mice at 3-months of age were injected intraperitoneally with Tm (2 mg/kg body weight) in 150 mM dextrose solution. Mice were injected with the same volume of dextrose solution as a control. Liver tissues were collected from mice at 24 hours after injection for RNA isolation. (C-E) Induction of the BiP, CHOP, EDEM, spliced XBP1, SAP and CRP mRNAs in mice challenged with IL6, IL1β, LPS or Tm. Wild-type C57B1/6J mice at 3-months of age were intraperitoneally injected with recombinant murine IL6 (25 ng/gram body weight), recombinant murine IL1β (25 ng/gram body weight), LPS (3 μg/gram body weight) or Tm (2 μg/gram body weight). Mice were injected with the same volume of NaCL (for panels C and D) or dextrose (for panels E) solution as controls. At 24 hours after injection, liver samples were collected for isolating total RNA. Quantitative real-time RT-PCR was used to determine the mRNA levels. Fold changes of mRNA induction were determined after normalization of the mRNA levels to internal control 18S ribosomal RNA levels. Each bar denotes the mean±S.D., n=5 mice per injection.
Quantitative real-time RT-PCR was performed as previously described (Back et al., 2005). Briefly, total cellular RNA prepared was reverse-transcribed to cDNA using a random primer (Applied Biosystems). The reaction mixture, containing SYBR Green PCR Master Mix (Applied Biosystems), was run in a 7900HT Fast Real-Time PCR System (Applied Biosystems). Real-time PCR primer sequences for quantification of murine XBP1 mRNA splicing are: the forward primer 5′-[sequence]-3′, and the reverse primer 5′-[sequence]-3′. Other primer sequences were designed by Primer Express (Applied Biosystems).

Molecule | induction of CREBH mRNA [1] | cleavage of CREBH to release a 50 kD N-terminal fragment [2] | fold increases in UPR mRNA levels relative to those observed after injection of Tm [3] | levels of spliced XBP1 mRNA and mRNA encoding EDEM in the liver [3]
O[C@H](CS)[C@H](O)CS (racemic) [DTT, dithiothreitol] | significantly induced | significantly induced cleavage of CREBH |  | 
C[C@H]1CCC/C=C/[C@@H]2C[C@H](O)C[C@H]2[C@H](O)/C=C/C(=O)O1 [BFA, Brefeldin A] | significantly induced | induced cleavage of CREBH |  | 
C/C=C(/C)C(=O)O[C@H]1C(C)=C2[C@H]([C@@H]1OC(=O)CCCCCCC)[C@@](C)(OC(C)=O)C[C@H](OC(=O)CCC)[C@@]1(O)[C@H]2OC(=O)[C@@]1(C)O [Tg, thapsigargin] | significantly induced | significantly induced cleavage of CREBH |  | 
tumor necrosis factor α [TNFα] | induced in a time-dependent manner | neither of them significantly induced CREBH cleavage |  | 
B1 | induced in a time-dependent manner |  | approximately 50 % of those observed after injection of Tm | also increased
B2 | induced in a time-dependent manner | neither of them significantly induced CREBH cleavage | approximately 50 % of those observed after injection of Tm | also increased

From patent US20070111258A1, “Compositions and methods for modulating the acute phase response” (priority 2005, published 2007)
